Experimental data as given in US10450549B2, “Aryloxyphenoxypropionate tolerance in turfrgass species and use of AAD1 as a selectable marker” (Dow AgroSciences, LLC, priority 2004, dated 2019).
Read-outs that look alike come from different tables or passages of the source.

Legend:
[1] = target: T1, AAD1 (v1) (Sphingobium herbicidovorans, UniProt Q8KSC8); assay: Colorimetric phenol detection assay of AAD1 (v1) activity (purified enzyme or E. coli extract); format: biochemical; settings: for A510, AAD1 / A510, AAD1 (10x): Table 4, substrate 1 mM; for A510, AAD1: 1 μg purified AAD1 (v1) per 0.16 ml assay; for A510, AAD1 (10x): 10 μg purified AAD1 (v1) per 0.16 ml assay; for activity of AAD1 (v1) E. coli extract on substrate: 0.5 mM substrate, 4 μl extract, 15 min
T1 construct: made in house; host or cells: E. coli BL-21 Star (DE3), plasmid pDAB3203
T1 sequence (Q8KSC8 whole entry): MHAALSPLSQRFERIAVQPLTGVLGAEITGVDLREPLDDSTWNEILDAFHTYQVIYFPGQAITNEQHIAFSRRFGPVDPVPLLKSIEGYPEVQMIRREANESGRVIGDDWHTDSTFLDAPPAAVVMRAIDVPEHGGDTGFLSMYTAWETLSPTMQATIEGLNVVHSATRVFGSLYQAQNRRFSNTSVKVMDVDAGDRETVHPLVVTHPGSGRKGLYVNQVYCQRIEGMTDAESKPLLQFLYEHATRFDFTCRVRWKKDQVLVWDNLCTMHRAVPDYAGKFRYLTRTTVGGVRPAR

[2] = system: AAD1 (v3)-transformed T0 corn events; assay: Tolerance of T0 AAD1 (v3) corn plants (pDAB3404) to postemergence AOPP herbicides; format: in vivo
[3] = system: Hi-II corn grown from seed; assay: Lethal dose of AOPP herbicides on non-transformed Hi-II corn
[4] = system: Agrostis palustris var. Pencross; assay: Bentgrass plate test bioassay for herbicide degradation; format: in vivo; settings: for GR50 ratio: enzyme-expressing lysate vs blank vector, ≥ 2 = threshold
Protocol: Because of the selective nature of the herbicides being tested (i.e., monocot plants controlled by AOPP herbicides and dicot plants controlled by auxinic herbicides), wildtype Agrostis palustris var. Pencross and Arabidopsis thaliana var. Columbia were used as monocot and dicot test species, respectively. Each species is amenable to germination and growth in small Petri dishes.
Twenty to thirty sterilized seeds for each test species used were added onto a sterile, solidified agar Plate Test Medium (PTM) [2.5 mM KNO3, 2.5 mM KH2PO4, […], 10 mM NaEDTA (pH 8.0), 2 mM MgSO4, 2 mM Ca(NO3) 2, 70 μM H3BO3, 14 μM MnCl2, 0.5 μM CuSO4, 1 μM ZnSO4, 0.2 μM NaMoO4.2H2O, 10 μM NaCl, 10 nM CoCl2.H2O, 0.8% (w/v) sucrose, 0.4% agarose (w/v)] for bioassay in 60×15-mm Petri dishes (Falcon 1007). PTM was additionally modified by adding up to six rates of test herbicide standards or herbicide-enzyme test solution dilutions such that the four-fold concentration increments covered a rate range of three orders of magnitude with the GR50 rate (50% growth reduction) approximately in the center of the range.
For herbicide-enzyme test solutions, the maximal concentration was determined based on the nominal concentration before any subsequent enzymatic degradation would occur. Seeds were evenly spread by adding 3 ml of melted PTM of the same composition, swirling, and allowing to solidify. Plates were sealed and maintained under sterile conditions in a low light growth chamber (24 h day^−1, 100 μE/m^2s^1, 23° C.) for 7 days. Root length or root+shoot length were measured for five randomly chosen Arabidopsis and bentgrass plants, respectively, average mean length (percent of untreated control) vs. nominal herbicide concentration and GR50 determined.

[5] = system: AAD1 (v3) T1 tobacco (events 721(2)-013.010 and 721(3)-008.005); assay: Segregating AAD1 T1 tobacco response to phenoxy auxin herbicides; format: in vivo, Nicotiana tabacum
Excerpt: (§1) Two AAD1 (v3) tobacco lines (event 721(2)-013.010 and 721(3)-008.005) were chosen from the T0 generation. The T1 seed was stratified, and sown into selection trays much like that of Arabidopsis (Example 6.4), followed by selective removal of untransformed nulls in this segregating population with 280 g ai/ha glufosinate (PAT selection). Survivors were transferred to individual 3-inch pots in the greenhouse. […] Improved consistency of response is anticipated in T1 plants not having come directly from tissue culture. These plants were compared against wildtype KY 160 tobacco. All plants were sprayed with the use of a track sprayer set at 187 L/ha. […] All applications were formulated in 200 mM Hepes buffer (pH 7.5). Each treatment was replicated 4 times. Plants were evaluated at 3 and 14 days after treatment. Plants were assigned injury rating with respect to stunting, chlorosis, and necrosis. The T1 generation is segregating, so some variable response is expected due to difference in zygosity. (Table 28).

[6] = system: T4 Arabidopsis homozygous for AAD1 (v3) (line AAD1.01.315.076); assay: Foliar-applied auxinic herbicides on homozygous T4 AAD1 (v3) Arabidopsis, % injury 14 DAT; format: in vivo, Arabidopsis thaliana; settings: AAD1.01.315.076.T4 homozygous AAD1 plants
Method in brief: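 Homozygous T4 AAD1 (v3) Arabidopsis (line AAD1.01.315.076) and a PAT/Cry1F transformed control were grown in pots and track-sprayed foliarly at 187 L/ha with herbicides formulated in 200 mM Hepes pH 7.5. Injury was rated 14 days after treatment, with 3-4 replicates averaged over two experiments.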

[7] = system: wildtype KY 160 tobacco; assay: Wildtype tobacco response to phenoxy auxin herbicides; format: in vivo, Nicotiana tabacum; settings: KY160-Wildtype
Protocol: Each treatment was replicated 1-3 times. Injury ratings were recorded 3 and 14 DAT. […] In several events, some initial auxinic herbicide-related epinasty occurred at doses of 800 g ae/ha or less. […] All events suffered some level temporary auxinic damage 3 DAT when treated with 3200 g ae/ha. Some leaf burning also occurred at this high rate due to the acidity of the spray solution. Future trials at high 2,4-D rates were buffered. […] Some events were inconsistent in response among replicates and were deemed “variable” (Table 27).
as §1

[8] = system: transformed-control line containing PAT and Cry1F; assay: Foliar-applied auxinic herbicides on control (PAT/Cry1F, wildtype) Arabidopsis, % injury 14 DAT; format: in vivo, Arabidopsis thaliana; settings: PatCry1f - Control
Protocol: The ability of AAD1 (v3) to provide resistance to other aryloxyphenoxyalkanoate auxin herbicides in transgenic Arabidopsis was determined by foliar application of various substrates described in Example 6.8. T4 generation Arabidopsis seed, homozygous for AAD1 (v3) (line AAD1.01.315.076) was stratified, and sown into selection trays much like that of Arabidopsis (Example 6.4). A transformed-control line containing PAT and the insect resistance gene Cry1F was planted in a similar manner. Seedlings were transferred to individual 3-inch pots in the greenhouse. All plants were sprayed with the use of a track sprayer set at 187 L/ha. […] All applications were formulated in 200 mM Hepes buffer (pH 7.5). Each treatment was replicated 3-4 times. Plants were evaluated at 3 and 14 days after treatment and are averaged over two experiments.

[9] = system: Hi II X 5XH751; assay: Greenhouse injury of non-transformed Hi II X 5XH751 corn (2,4-D DMA, glyphosate, glufosinate and combinations); format: in vivo
Protocol: (§2) F1 seeds were planted individually into 3-inch pots prepared with Metro-Mix® 360 growing medium (Sun Gro Horticulture). […] For the remainder of the study the plants were subirrigated with deionized water.
(§3) The plants were sprayed with rates of 2,4-D DMA, glyphosate, glufosinate, and various combinations of the three. All applications were formulated in 200 mM Hepes buffer (pH 7.5). In spray applications where glufosinate was present the treatment was formulated with the addition of 2% w/v ammonium sulfate.
(§4) At 3 and 14 days after treatment (DAT) plants were evaluated. Plants were assigned injury rating with respect to stunting, chlorosis, and necrosis. Plants assigned an injury rating of 90% or above are considered dead.

[10] = system: F1 corn containing AAD1 (v3), PAT, and glyphosate resistance genes; assay: Greenhouse injury of F1 corn stacked with AAD1 (v3), PAT and glyphosate resistance (2,4-D DMA, glyphosate, glufosinate and combinations); format: in vivo; settings: RR/PAT/AAD1
Excerpt: Homozygous T2 AAD1 (v3)/PAT corn plants were crossed with glyphosate resistant corn plants producing F1 seed containing AAD1 (v3), PAT, and glyphosate resistance genes as described in the previous example.
as §2, §3, §4

[11] = purified AAD1 (v1), 1 mM substrate
[12] = Agrostis stolonifera, AAD1 (v1)-expressing lysate, nominal concentration, read-out: GR50, Chemical + AAD1 v1
[13] = Escherichia coli, in Agrostis stolonifera, cell lysate of E. coli pET vector without gene insert, read-out: GR50, Chemical + Blank Vector

## C[C@@H](Oc1ccc(Oc2ccc(C#N)cc2F)cc1)C(=O)O [cyhalofop]
[1]
  A510, AAD1: 0.114
  A510, AAD1 (10x): 1.26
[1]; [11]
  activity relative to the dichlorprop rate: 21%
  activity relative to the quizalofop rate: 27%
[2]; 62.5 g ae/ha, construct 3404 event 001 clone 018
  % Injury 14 DAT: 0%
[2]; 62.5 g ae/ha, construct 3404 event 022 clone 024
  % Injury 14 DAT: 0%
[2]; 62.5 g ae/ha, construct 3404 event 038 clone 018
  % Injury 14 DAT: 0%
[2]; 125 g ae/ha, construct 3404 event 022 clone 018
  % Injury 14 DAT: 0%
[3]; Clincher + 1% COC (v/v)
  lethal dose: 62.5 g ae/ha)
[3]; postemergence, commercial formulations
  rate that effectively kills (>95% injury) three to four leaf Hi-II corn: 62.5 g ae/ha

## CC(Oc1ccc(Oc2ccc(Cl)cc2Cl)cc1)C(=O)O (racemic) [(R,S)- diclofop]
[1]
  activity of AAD1 (v1) E. coli extract on substrate: cleaved
  A510, AAD1: 0.155
  A510, AAD1 (10x): 1.663
[4]; AAD1 (v1) extract
  herbicidal activity after AAD1 (v1) treatment, bentgrass plate bioassay: loss of herbicidal activity
[4]; [12]
  IC50: 130 nM
[4]; [13]
  IC50: 20 nM
[4]
  GR50 ratio: 7

## CC(Oc1ccc(Oc2ncc(C(F)(F)F)cc2Cl)cc1)C(=O)O (stereo not shown) [Haloxyfop-RS]
[1]
  activity of AAD1 (v1) E. coli extract on substrate: cleaved
[4]; Agrostis stolonifera, 168 h, root+shoot length, 7 days, read-out: GR50, Chemical alone
  IC50: 28 nM
[4]; [12]
  IC50: 520 nM
[4]; [13]
  IC50: 21 nM
[4]
  GR50 ratio: 25

## C[C@@H](Oc1ccc(Cl)cc1Cl)C(=O)O [R-dichlorprop]
[1]; purified AAD1 (v1)
  kcat: 0.435 s⁻¹
[1]; purified AAD1 (v1), 25 mM MOPS pH 6.8, 25° C., read-out: Km ± SE
  Km: 75 ± 10 µM
[1]; purified AAD1 (v1), Michaelis-Menten fit
  Vmax ± SE: 0.79 ± 0.03 μmol min^−1 mg^−1 AAD1
[5]; 560 g ae/ha, 721(2)013.010 (medium tolerance in T0 generation)
  Average % Injury of Replicates 14 DAT: 5%
[5]; 560 g ae/ha, 721(3)008.005 (high tolerance in T0 generation)
  Average % Injury of Replicates 14 DAT: 0%
[5]; 1120 g ae/ha, 721(2)013.010 (medium tolerance in T0 generation)
  Average % Injury of Replicates 14 DAT: 5%
[5]; 1120 g ae/ha, 721(3)008.005 (high tolerance in T0 generation)
  Average % Injury of Replicates 14 DAT: 0%
[5]; 2240 g ae/ha, 721(2)013.010 (medium tolerance in T0 generation)
  Average % Injury of Replicates 14 DAT: 5%
[5]; 2240 g ae/ha, 721(3)008.005 (high tolerance in T0 generation)
  Average % Injury of Replicates 14 DAT: 0%
[5]; 4480 g ae/ha, 721(2)013.010 (medium tolerance in T0 generation)
  Average % Injury of Replicates 14 DAT: 10%
[5]; 4480 g ae/ha, 721(3)008.005 (high tolerance in T0 generation)
  Average % Injury of Replicates 14 DAT: 5%
[5]; rates below 1× field rates (560 g ae/ha), either event
  injury of T1 AAD1 (v3) tobacco: No injury was observed
[6]; 50 g ae/ha foliar
  Ave % Injury 14DAT: 3%
[6]; 200 g ae/ha foliar
  Ave % Injury 14DAT: 3%
[6]; 800 g ae/ha foliar
  Ave % Injury 14DAT: 3%
[6]; 3200 g ae/ha foliar
  Ave % Injury 14DAT: 3%
[7]; 560 g ae/ha
  Average % Injury of Replicates 14 DAT: 70%
[7]; 1120 g ae/ha
  Average % Injury of Replicates 14 DAT: 75%
[7]; 2240 g ae/ha
  Average % Injury of Replicates 14 DAT: 88%
[7]; 4480 g ae/ha
  Average % Injury of Replicates 14 DAT: 95%
[8]; 50 g ae/ha foliar
  Ave % Injury 14DAT: 31%
[8]; 200 g ae/ha foliar
  Ave % Injury 14DAT: 73%
[8]; 800 g ae/ha foliar
  Ave % Injury 14DAT: 89%
[8]; 3200 g ae/ha foliar
  Ave % Injury 14DAT: 95%

## CP(=O)(O)CCC(N)C(=O)O (stereo not shown) [glufosinate]
[9]; 470 g ae/ha (1X)
  % Injury at 14 DAT Ave: 80%
[9]; 940 g ae/ha (2X)
  % Injury at 14 DAT Ave: 90%
[9]; 1880 g ae/ha (4X)
  % Injury at 14 DAT Ave: 96%
[10]; 470 g ae/ha (1X)
  % Injury at 14 DAT Ave: 0%
[10]; 940 g ae/ha (2X)
  % Injury at 14 DAT Ave: 3%
[10]; 1880 g ae/ha (4X)
  % Injury at 14 DAT Ave: 15%
